From patent US20200385489A1, “USING COLIPASE INHIBITORS TO TREAT PANCREATITIS” (Mayo Foundation for Medical Education and Research, priority 2015, published 2020)

B1: Colipase: colipase polypeptide added to the medium (0.25 mcg/mL) as cofactor of pancreatic lipases (protein, UniProt P04118 23-112, looked up)
Colipase: GIIINLENGELCMNSAQCKSNCCQHSSALGLARCTSMASENSECSVKTLYGIYYKCPCERGLTCEGDKTIVGSITNTNFGICHDAGRSKQ

Columns and labels:
[1] = tested on: Differentiated 3T3-LI adipocytes; test: LDH leakage from PTL-transfected 3T3-LI adipocytes with colipase; type: cell-based; settings: over 8 hours
Protocol: (§1) Differentiated 3T3-LI adipocytes with lipid droplets were transfected with adenovirus expressing pancreatic triglyceride lipase (PTL) to induce lactate dehydrogenase (LDH) leakage or left as unstimulated controls. The medium was replaced with serum free medium alone or with colipase (0.25 mcg/mL). In some wells the lipase inhibitor orlistat (20 micromolar) was added every 2 hours.
LDH leakage into the medium was measured as a marker of cell injury. […] Colipase increased this to 30-40% LDH leakage compared to controls. […] Glycerol release was measure as a marker of lipolysis. […] Colipase increased glycerol release compared to controls. Glycerol release was prevented by the lipase inhibitor orlistat (FIG. 3B).

[2] = tested on: Differentiated 3T3-LI adipocytes; test: Glycerol release (lipolysis) from PTL-transfected 3T3-LI adipocytes with colipase; type: cell-based; settings: PTL + colipase 0.25 mcg/mL; orlistat 20 micromolar every 2 hours; over 8 hours
Protocol: as §1, with “hours. LDH leakage into the medium was measured as a marker of cell injury. […] Colipase increased this to 30-40% LDH leakage compared to controls. […] Glycerol release was measure as a marker of lipolysis. […] Colipase increased glycerol release compared to controls. Glycerol release was prevented by the lipase inhibitor orlistat (FIG. 3B).” for “hours.”

[3] = tested on: Differentiated 3T3-LI adipocytes; test: MCP-1 release from PTL-transfected 3T3-LI adipocytes with colipase (luminex); type: cell-based; settings: PTL + colipase 0.25 mcg/mL; orlistat 20 micromolar every 2 hours
Protocol: Differentiated 3T3-LI adipocytes with lipid droplets were transfected with adenovirus expressing pancreatic triglyceride lipase (PTL) or left as unstimulated controls. The medium was replaced with serum free medium alone or with colipase (0.25 mcg/mL). In some wells the lipase inhibitor orlistat (20 micromolar) was added every 2 hours. Cytokine release was measured as a marker of inflammatory response. MCP-1 release into the medium was measured by luminex. There was a significant release of MCP-1 only when both colipase and PTL were present. This release was prevented by orlistat (FIG. 6B).

pancreatic acini = test: Adipocyte induced necrosis in pancreatic acini (co-culture); type: cell-based; settings: inhibitor 50 μM
Protocol: (§2) Adipocytes were stimulated by isoproterenol (Iso 10 μM) or co-cultured with pancreatic acini. The adipose triglyceride lipase (ATGL) inhibitor atglistatin or the pancreatic lipase inhibitor orlistat (50 μM each) was added in some conditions.
Co-culture of adipocytes and pancreatic acini induced necrosis in the acini.

[4] = tested on: Differentiated 3T3-LI adipocytes; test: IL-6 release from PTL-transfected 3T3-LI adipocytes with colipase (luminex); type: cell-based; settings: PTL + colipase 0.25 mcg/mL; orlistat 20 micromolar every 2 hours
Protocol: Differentiated 3T3-LI adipocytes with lipid droplets were transfected with adenovirus expressing pancreatic triglyceride lipase (PTL) or left as unstimulated controls. The medium was replaced with serum free medium alone or with colipase (0.25 mcg/mL). In some wells the lipase inhibitor orlistat (20 micromolar) was added every 2 hours. Cytokine release was measured as a marker of inflammatory response. IL-6 release into the medium was measured by luminex. There was a significant release of IL-6 only when both colipase and PTL were present. This release was prevented by orlistat (FIG. 6A).

adipocytes = test: Isoproterenol induced lipolysis in adipocytes (glycerol release); type: cell-based; settings: Iso 10 μM; inhibitor 50 μM
Protocol: as §2
Glycerol release was measured as a marker of lipolysis in adipocytes. Isoproterenol induced lipolysis in adipocytes.

[5] = tested on: rats with lethal pancreatitis; test: Caerulein plus glyceryl trioleate lethal pancreatitis in rats; type: in vivo, rat; settings: orlistat 50 mg/kg
Protocol: Pancreatitis was induced in rats and flow cytometry was performed on white blood cells (WBCs) from peripheral blood.
Rats (100 gm rats) were either given caerulein (20 mcg/kg BID (twice a day) intraperitoneally) to induce pancreatitis or left untreated as control animals. Some rats were also given glyceryl trioleate (3 ml intraperitoneally) to induce lactate dehydrogenase (LDH) leakage. Some rats also received the lipase inhibitor orlistat (50 mg/kg). Blood was collected from rats 2 days after induction of caerulein pancreatitis with or without administration of caerulein, glyceryl trioleate, and/or orlistat.

Rat parotid acini = test: LDH leakage from rat parotid acini exposed to glyceryl trilinoelate, human PTL and human colipase; type: cell-based; settings: glyceryl trilinoelate 300 micromolar + human PTL 1 micrograms/mL + human colipase 0.25 micrograms/mL; orlistat 50 micromolar or serum 1:4 dilution; over 4 hours
Protocol: Cells exposed to glyceryl trilinoelate, PTL, and colipase were treated at a 1:4 dilution with either orlistat (50 micromolar), serum from mice immunized against human colipase, or serum from unimmunized mice. […] (LDH) leakage into the medium was measured over 4 hours.

Row | Molecule | LDH leakage into the medium (marker of cell injury) ([1]; PTL + colipase 0.25 mcg/mL, orlistat 20 micromolar added every 2 hours) | Glycerol release (marker of lipolysis) [2] | MCP-1 release into the medium [3] | Adipocyte induced necrosis in pancreatic acini as measured by glycerol release (pancreatic acini) | Adipocyte induced necrosis in pancreatic acini as measured by propidium iodide uptake (pancreatic acini) | IL-6 release into the medium [4] | Isoproterenol induced lipolysis (glycerol release) (adipocytes) | Survival ([5]; caerulein + glyceryl trioleate (97% mortality by day 3 without treatment)) | Apoptosis of circulating cells (annexin V positive CD11b) ([5]; caerulein + glyceryl trioleate, blood 2 days after induction) | LDH leakage into the medium (Rat parotid acini) | LDH leakage compared to controls ([1]; PTL-transfected adipocytes, colipase 0.25 mcg/mL)
1 | CCCCCCCCCCC[C@@H](C[C@@H]1OC(=O)[C@H]1CCCCCC)OC(=O)[C@H](CC(C)C)NC=O [orlistat] | completely prevented | prevented | prevented | inhibited | inhibited | prevented | but not orlistat, inhibited | survive | prevented | significantly reduced | –
2 | CN(C)C(=O)Nc1cccc(-c2ccc(N(C)C)cc2)c1 [atglistatin] | – | – | – | – | – | – | inhibited | – | – | – | –
3 | B1 | – | – | – | – | – | – | – | – | – | – | 30-40%
